Experimental data from ChEMBL document CHEMBL3352648, “Bioactive constituents of Cirsium japonicum var. australe” (J Nat Prod, 2014).
Values after ≈ are worked out from the molar mass of the structure shown. Active and inactive are the calls of the source. The calls are words filed in the database; no cut-off is given here.

Assays:
[1] = test system: 3T3-L1; assay: Hypoglycemic activity in mouse 3T3L1 cells assessed as increase in glucose consumption at 50 ug/ml after 24 hrs by 2-deoxyglucose uptake assay; assay type: functional, cell-based
[2] = test system: 3T3-L1; assay: Hypoglycemic activity in mouse 3T3L1 cells assessed as increase in glucose consumption at 12.5 ug/ml after 24 hrs by 2-deoxyglucose uptake assay; assay type: functional, cell-based
[3] = test system: 3T3-L1; assay: Hypoglycemic activity in mouse 3T3L1 cells assessed as increase in glucose consumption at 25 ug/ml after 24 hrs by 2-deoxyglucose uptake assay; assay type: functional, cell-based
[4] = test system: 3T3-L1; assay: Effect on lipid accumulation in mouse 3T3L1 cells at 20 ug/ml for 7 days by Oil Red O dye; assay type: functional, cell-based
[5] = Antioxidant activity assessed as ABTS radical scavenging activity; assay type: physicochemical
[6] = Antioxidant activity assessed as DPPH radical scavenging activity; assay type: physicochemical
[7] = test system: 3T3-L1; assay: Hypoglycemic activity in mouse 3T3L1 cells assessed as increase in glucose consumption at 50 ug/ml after 24 hrs by 2-deoxyglucose uptake assay

| Compound | Activity [1] | Activity [2] | Activity [3] | Activity [4] | EC50 [5] [µg/mL] | EC50 [6] [µg/mL] | Activity [7] |
| --- | --- | --- | --- | --- | --- | --- | --- |
| C=CCCCCCC(O)C(O)C(O)C#CC#CCCC (stereo not drawn) | Active | Active | Active | inactive |  |  |  |
| CCOC(=O)/C=C/c1ccc(O)c(O)c1 [ETHYL CAFFEATE] | Active |  |  |  | 0.19 (≈ 0.913 µM) | 0.18 (≈ 0.864 µM) |  |
| O=c1cc(-c2ccc(O)cc2)oc2cc(O)cc(O)c12 |  |  |  |  |  |  | inactive |
